Source: patent publication US5672715A, “Herbicidal substituted 3-aryl-pyrazoles” (Monsanto Company, priority 1995, dated 1997)

Assays:
Format in all cases: in vivo
Prickly Sida [1] = experiment: pre-emergence herbicide test; conditions: 0.25 lb/A, read-out: % plant inhibition
Method in brief: (§1)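 Percent inhibition of emergence and growth was recorded roughly 14 days after seeding. Compound was incorporated into, or applied onto, a topsoil cover layer over seeds in pans kept in a greenhouse and watered from below.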

Seedling Johnsongrass = experiment: pre-emergence herbicide test; conditions: 0.25 lb/A; for inhibition at 280.212 g/ha: Sorghum halepense, pre-emergence, read-out: % plant inhibition
Method in brief: as §1

Giant Foxtail = experiment: pre-emergence herbicide test; conditions: Setaria faberi, pre-emergence, 0.25 lb/A; read-out: % plant inhibition
Method in brief: as §1

Common Chickweed = experiment: post-emergence herbicide test; conditions: post-emergence, read-out: % plant inhibition; for inhibition at 7.95803 g/ha: 0.0071 lb/A; for inhibition at 40.0143 g/ha: 0.0357 lb/A; for inhibition at 200.072 g/ha: 0.1785 lb/A; for inhibition at 1000.92 g/ha: 0.893 lb/A
Method in brief: (§2)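 Plants were raised from seed in topsoil pans in the greenhouse and treated post-emergence at two to three weeks of age. Candidate chemical was applied in spray solution or suspension containing about 0.4% emulsifier at 1870 L/Ha. Activity recorded as percent inhibition.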

Prickly Sida [2] = experiment: post-emergence herbicide test; conditions: 0.25 lb/A, read-out: % plant inhibition
Method in brief: as §2

Sicklepod = experiment: post-emergence herbicide test; conditions: Senna obtusifolia, 0.25 lb/A, read-out: % plant inhibition
Method in brief: as §2

Morning Glory = experiment: post-emergence herbicide test; conditions: Ipomoea, post-emergence, read-out: % plant inhibition; for inhibition at 7.95803 g/ha: 0.0071 lb/A; for inhibition at 40.0143 g/ha: 0.0357 lb/A; for inhibition at 200.072 g/ha: 0.1785 lb/A; for inhibition at 1000.92 g/ha: 0.893 lb/A
Method in brief: as §2

Corn = experiment: post-emergence herbicide test; conditions: Zea mays, post-emergence, read-out: % plant inhibition; for inhibition at 7.95803 g/ha: 0.0071 lb/A; for inhibition at 40.0143 g/ha: 0.0357 lb/A; for inhibition at 200.072 g/ha: 0.1785 lb/A; for inhibition at 1000.92 g/ha: 0.893 lb/A
Method in brief: as §2

Black Nightshade = experiment: post-emergence herbicide test; conditions: Solanum nigrum, 0.25 lb/A, read-out: % plant inhibition
Method in brief: as §2

Hemp Sesbania = experiment: post-emergence herbicide test; conditions: 0.25 lb/A, read-out: % plant inhibition
Method in brief: as §2

Yellow Nutsedge = experiment: post-emergence herbicide test; conditions: Cyperus, read-out: % plant inhibition; for inhibition at 7.95803 g/ha: 0.0071 lb/A; for inhibition at 40.0143 g/ha: 0.0357 lb/A; for inhibition at 200.072 g/ha: 0.1785 lb/A; for inhibition at 1000.92 g/ha: 0.893 lb/A
Method in brief: as §2

Velvetleaf = experiment: post-emergence herbicide test; conditions: Abutilon theophrasti, post-emergence, read-out: % plant inhibition; for inhibition at 7.95803 g/ha: 0.0071 lb/A; for inhibition at 40.0143 g/ha: 0.0357 lb/A; for inhibition at 200.072 g/ha: 0.1785 lb/A; for inhibition at 1000.92 g/ha: 0.893 lb/A
Method in brief: as §2

Yellow Foxtail = experiment: post-emergence herbicide test; conditions: Setaria, read-out: % plant inhibition; for inhibition at 7.95803 g/ha: 0.0071 lb/A; for inhibition at 40.0143 g/ha: 0.0357 lb/A; for inhibition at 200.072 g/ha: 0.1785 lb/A; for inhibition at 1000.92 g/ha: 0.893 lb/A
Method in brief: as §2

Wild Proso Millet = experiment: pre-emergence herbicide test; conditions: 0.25 lb/A, read-out: % plant inhibition
Method in brief: as §1

Broadleaf Signalgrass = experiment: pre-emergence herbicide test; conditions: Urochloa platyphylla, 0.25 lb/A, read-out: % plant inhibition
Method in brief: as §1

Shattercane = experiment: pre-emergence herbicide test; conditions: 0.25 lb/A, read-out: % plant inhibition
Method in brief: as §1

Row | SMILES | inhibition at 280.212 g/ha (Seedling Johnsongrass) [%] | inhibition at 7.95803 g/ha (Common Chickweed) [%] | inhibition at 40.0143 g/ha (Common Chickweed) [%] | inhibition at 200.072 g/ha (Common Chickweed) [%] | inhibition at 1000.92 g/ha (Common Chickweed) [%] | inhibition at 7.95803 g/ha (Morning Glory) [%] | inhibition at 40.0143 g/ha (Morning Glory) [%] | inhibition at 200.072 g/ha (Morning Glory) [%] | inhibition at 1000.92 g/ha (Morning Glory) [%] | inhibition at 7.95803 g/ha (Corn) [%] | inhibition at 40.0143 g/ha (Corn) [%] | inhibition at 200.072 g/ha (Corn) [%] | inhibition at 1000.92 g/ha (Corn) [%] | inhibition at 7.95803 g/ha (Yellow Nutsedge) [%] | inhibition at 40.0143 g/ha (Yellow Nutsedge) [%] | inhibition at 200.072 g/ha (Yellow Nutsedge) [%] | inhibition at 1000.92 g/ha (Yellow Nutsedge) [%] | inhibition at 7.95803 g/ha (Velvetleaf) [%] | inhibition at 40.0143 g/ha (Velvetleaf) [%] | inhibition at 200.072 g/ha (Velvetleaf) [%] | other results
1 | Cc1c(-c2cc(OCC(=O)OC(C)C)c(Cl)cc2F)nn(C)c1C(F)(F)F [Compound 38] | 30 | 65 | 75 | 95 | 98 | 80 | 100 | 100 | 100 | 5 | 10 | 25 | 25 | 35 | 25 | 25 | 25 | 65 | 100 | 100 | inhibition at 280.212 g/ha (Prickly Sida [1]): 95%; % plant inhibition (Seedling Johnsongrass): 25%; inhibition at 280.212 g/ha (Giant Foxtail): 20%; inhibition at 280.212 g/ha (Prickly Sida [2]): 50%; inhibition at 280.212 g/ha (Sicklepod): 20%; inhibition at 280.212 g/ha (Morning Glory; 0.25 lb/A): 95%; inhibition at 280.212 g/ha (Corn; 0.25 lb/A): 10%; inhibition at 280.212 g/ha (Black Nightshade): 100%; inhibition at 280.212 g/ha (Hemp Sesbania): 100%; inhibition at 280.212 g/ha (Velvetleaf; 0.25 lb/A): 100%; inhibition at 1000.92 g/ha (Velvetleaf): 100%; inhibition at 7.95803 g/ha (Yellow Foxtail): 0%; inhibition at 40.0143 g/ha (Yellow Foxtail): 35%; inhibition at 200.072 g/ha (Yellow Foxtail): 10%; inhibition at 1000.92 g/ha (Yellow Foxtail): 15%
2 | COc1cc(-c2nn(C)c(C(F)(F)F)c2C)c(F)cc1Cl [Compound 37] | 100 | 0 | 40 | 70 | 80 | 0 | 45 | 95 | 100 | 5 | 10 | 50 | 100 | 0 | 10 | 15 | 40 | 25 | 35 | 50 | inhibition at 280.212 g/ha (Wild Proso Millet): 100%; inhibition at 280.212 g/ha (Giant Foxtail): 100%; inhibition at 280.212 g/ha (Broadleaf Signalgrass): 100%; inhibition at 280.212 g/ha (Shattercane): 100%; inhibition at 1000.92 g/ha (Velvetleaf): 100%; inhibition at 7.95803 g/ha (Yellow Foxtail): 0%; inhibition at 40.0143 g/ha (Yellow Foxtail): 20%; inhibition at 200.072 g/ha (Yellow Foxtail): 65%; inhibition at 1000.92 g/ha (Yellow Foxtail): 65%
3 | C#CCOc1cc(-c2nn(C)c(C(F)(F)F)c2C)c(F)cc1Cl [Compound 39] | 100 | 0 | 100 | 100 | 100 | 95 | 80 | 100 | 95 | 50 | 30 | 100 | 95 | 0 | 40 | 10 | 30 | 75 | 100 | 100 | inhibition at 280.212 g/ha (Wild Proso Millet): 100%; inhibition at 280.212 g/ha (Broadleaf Signalgrass): 100%; inhibition at 280.212 g/ha (Shattercane): 100%; inhibition at 1000.92 g/ha (Velvetleaf): 100%; inhibition at 7.95803 g/ha (Yellow Foxtail): 65%; inhibition at 40.0143 g/ha (Yellow Foxtail): 100%; inhibition at 200.072 g/ha (Yellow Foxtail): 100%; inhibition at 1000.92 g/ha (Yellow Foxtail): 100%
